From ChEMBL document CHEMBL1671637, “Development, stability, and molecular mechanisms of macrolide resistance in Campylobacter jejuni” (2008)
≈ marks a conversion by molar mass, not a printed value. Calls of active or inactive are those of the source. No cut-off for these calls is given here.

Key:
[1] = test system: Campylobacter jejuni; assay: Antimicrobial activity against Campylobacter jejuni DC2 infected in chicken assessed as microbial shedding level after compound administration through feed for 20 days; format: functional, organism-based
[2] = test system: Campylobacter jejuni; assay: Antimicrobial activity against Campylobacter jejuni DC6 infected in 3 days old chicken by agar dilution method; format: functional
[3] = test system: Campylobacter jejuni; assay: Antimicrobial activity against Campylobacter jejuni DC26 infected in 15 days old chicken food on medicated food by agar dilution method; format: functional
[4] = test system: Campylobacter jejuni; assay: Antimicrobial activity against Campylobacter jejuni DC2 infected in 15 days old chicken food on medicated food by agar dilution method; format: functional
[5] = test system: Campylobacter jejuni; assay: Antimicrobial activity against Campylobacter jejuni DC26 infected in chicken assessed as microbial shedding level after compound administration through feed for 20 days; format: functional, organism-based
[6] = test system: Campylobacter jejuni; assay: Antimicrobial activity against Campylobacter jejuni DC2 infected in 15 days old chicken by agar dilution method; format: functional
[7] = test system: Campylobacter jejuni; assay: Antimicrobial activity against Campylobacter jejuni DC2 infected in 3 days old chicken by agar dilution method; format: functional

SMILES: CC[C@H]1OC(=O)C[C@@H](O)[C@H](C)[C@@H](O[C@@H]2O[C@H](C)[C@@H](O[C@H]3C[C@@](C)(O)[C@@H](O)[C@H](C)O3)[C@H](N(C)C)[C@H]2O)[C@@H](CC=O)C[C@@H](C)C(=O)/C=C/C(C)=C/[C@@H]1CO[C@@H]1O[C@H](C)[C@@H](O)[C@@H](OC)[C@H]1OC [TYLOSIN]
- Activity [1]: inactive
- MIC [2]: > 512 µg/mL
- MIC [3]: 128 µg/mL (≈ 140 µM)
- MIC [4]: 64 µg/mL (≈ 69.9 µM)
- Activity [5]: inactive
- MIC [6]: 64 µg/mL (≈ 69.9 µM)
- MIC [7]: 64 µg/mL (≈ 69.9 µM)
